Test system: Macrophomina phaseolina
Assay: Strawberry pot trial in the greenhouse, soil drench at planting, efficacy against Macrophomina phaseolina
Format: in vivo
Details: 250 g AI/ha drench at planting, strawberry 'Sweet Ann'; for Pest severity (IS 0-5; 0 = no damage, 5 = severe damage): 6 replications
Method: A strawberry pot trial was carried out in the greenhouse Vero Beach, United States to evaluate the efficacy of different compounds against Macrophomina phaseolina.
The plants were planted in 4 L pots with Vero Beach Mix (50% potting media and 50% pasteurized sand). The plants were bare root strawberry of the variety ‘Sweet Ann’. The strawberry plants were partially planted, then were inoculated with 2 grams of the infested millet. The inoculum was grown on twice sterilized millet for 1-2 weeks. The isolate used was originally isolated from strawberry. After the inoculation the roots were completely covered. At the day of planting each plant was drench applied with 100 mL of compound solution. The application dose was calculated based on a plant spacing of 30.5 cm by 45.7 cm. The plants were grown in a greenhouse that averaged 32° C. in the day and 21° C. at night. Plants were watered daily. The disease severity was evaluated after 44 and 65 days after application using a […] index scale (5=severe damage, 0=no damage).

[1] = 65 days after application (second assessment)

With `O=C(NCCc1ncc(C(F)(F)F)cc1Cl)c1ccccc1C(F)(F)F` [Fluopyram] the “% efficacy based on disease incidence” value (44 days after planting) was 44.33%, the “Pest severity (IS 0-5; 0 = no damage, 5 = severe damage)” value (44 days after planting) was 1.67,A and the “% efficacy based on disease incidence” value [1] was 1.60%. The “Pest severity (IS 0-5; 0 = no damage, 5 = severe damage)” value [1] was 4.92,A.
